Reference: patent publication US20220235047A1, “A MEDICAMENT FOR TREATING MYCOBACTERIAL INFECTION CHARACTERIZED BY COMBINING A CYTOCHROME bc1 INHIBITOR WITH CLARITHROMYCIN OR AZITHROMYCIN AND CLOFAZIMINE” (priority 2019, published 2022)

Tests used:
[1] = target: cytochrome bc1 (Mycobacterium tuberculosis, UniProt P9WP37); settings: described in WO2017/049321 (HT-21) and WO2011/113606 (Q203); cited from earlier work
[2] = system: Mycobacterium avium ATCC700898; test: Test1: mouse lung infection model, CFU in lungs after 2 weeks of treatment
Description: There were 9 study groups and 4 mice per group
All treatments were evaluated on Mycobacterium avium ATCC700898.
All formulations prepared in 20% Tween20, 80% aq. (20% HP-ß-CD and 0. 6% HPMC, pH3).
All formulations were solutions and prepared every day.
Time Schedule, after mice were infected.
The mice were infected with Mycobacterium avium strain.
When 0.07 mL of this dilution is injected, each mouse receives 10^6 bacteria.
36 female 8-weeks old BALB/c mice, Charles River, were inoculated intranasally with 0.07 mL of a bacterial suspension containing ±10^6 colony forming units (CFU). […]
The effectiveness of treatments was assessed by counting the numbers of colony-forming-units (CFU) in the lungs. • 1.8 mL Mueller Hinton Broth (MHB) was added to each homogenization tube containing lung. • Lungs were homogenized, and four 10-fold serial dilutions were made in MHB. • From each individual lung, 100 μL of the undiluted suspension and four serial 10-fold dilutions, were plated on 7H10 agar plates. • CFU's were counted after incubation at 35° C. for 2 weeks. • The bactericidal effect of the treatment was defined as a significant decrease of the mean number of CFU in the treated group compared to pre-treatment value.

[3] = system: TB; settings: in vitro and in vivo mouse model; cited from earlier work
[4] = system: Mycobacterium avium ATCC700898; test: Test3: mouse lung infection model, CFU in lungs after 2 weeks of treatment; type: in vivo; settings: day 15, AZM 10 mg/kg, RFP 10 mg/kg, ETB 100 mg/kg, CFZ 20 mg/kg, Q203 5 mg/kg
Description: (§1) Almost protocol was the same as the protocol described in Test1 above.

[5] = system: cytochrome P-450 (CYP) 3A; settings: cited from earlier work
[6] = system: Mycobacterium avium ATCC700898; test: Test2: mouse lung infection model, CFU in lungs after 2 weeks of treatment; type: in vivo; settings: day 15, CAM 200 mg/kg
Description: There were 6 study groups and 4 mice per group
as §1

[7] = system: M. avium; settings: in vitro; cited from earlier work
[8] = system: M. intracellulare; settings: in vitro, majority of M. intracellulare isolates; cited from earlier work
[9] = system: MAC; settings: pulmonary disease patients infected by MAC; relapse still occurred; cited from earlier work

Chain of cytochrome bc1 (P9WP37 whole entry, looked up): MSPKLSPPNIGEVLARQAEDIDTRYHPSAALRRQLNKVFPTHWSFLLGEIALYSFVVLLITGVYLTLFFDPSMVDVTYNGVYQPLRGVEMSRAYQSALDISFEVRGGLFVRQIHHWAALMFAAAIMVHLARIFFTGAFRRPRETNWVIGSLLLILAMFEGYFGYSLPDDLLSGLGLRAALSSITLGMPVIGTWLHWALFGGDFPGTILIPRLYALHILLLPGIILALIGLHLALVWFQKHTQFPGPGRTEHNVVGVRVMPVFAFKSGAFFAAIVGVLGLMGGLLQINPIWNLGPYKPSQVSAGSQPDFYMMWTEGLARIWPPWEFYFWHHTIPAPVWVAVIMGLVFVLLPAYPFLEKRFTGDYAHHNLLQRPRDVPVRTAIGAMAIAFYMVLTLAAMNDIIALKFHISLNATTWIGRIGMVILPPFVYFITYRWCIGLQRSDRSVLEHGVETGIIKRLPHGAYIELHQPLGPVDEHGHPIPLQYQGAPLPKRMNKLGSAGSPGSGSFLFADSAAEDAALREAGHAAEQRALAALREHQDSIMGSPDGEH

For `Cc1ccn2c(C(=O)NCc3ccc(N4CCCN(c5ccc(C(F)(F)F)cc5)CC4)c(F)c3)c(C)nc2c1` [HT-21], the “cytochrome bc1 inhibitory activity” value [1] is given as “excellent cytochrome bc1 inhibitory activity” and the “efficacy (CFU in lungs), in words” value ([2]; HT-21 200 mg/kg added to clarithromycin+clofazimine, cut off 2.00) is given as “the effect reached plateau”.
In the case of `CCc1nc2cc(C)ccn2c1C(=O)NCc1ccc(N2CCC(c3ccc(OC(F)(F)F)cc3)CC2)cc1` [Q203], the “cytochrome bc1 inhibitory activity” value [1] is listed as “excellent cytochrome bc1 inhibitory activity” and the “growth of TB” value [3] is listed as “inhibited the growth of TB”.
In the case of `CC[C@H]1OC(=O)[C@H](C)[C@@H](O[C@H]2C[C@@](C)(OC)[C@@H](O)[C@H](C)O2)[C@H](C)[C@@H](O[C@@H]2O[C@H](C)C[C@H](N(C)C)[C@H]2O)[C@](C)(O)C[C@@H](C)CN(C)[C@H](C)[C@@H](O)[C@]1(C)O` [AZM, Azithromycin], the “Mean Log10 (CFU in lungs)” value [4] is given as 6.19 and the “inhibition of CYP3A” value [5] is given as “does not inhibit”.
With `CC[C@H]1OC(=O)[C@H](C)[C@@H](O[C@H]2C[C@@](C)(OC)[C@@H](O)[C@H](C)O2)[C@H](C)[C@@H](O[C@@H]2O[C@H](C)C[C@H](N(C)C)[C@H]2O)[C@](C)(OC)C[C@@H](C)C(=O)[C@H](C)[C@@H](O)[C@]1(C)O` [CAM, Clarithromycin] the “Mean Log10 (CFU in lungs)” value ([2]; BALB/c mice, day 15, oral once daily, 10 doses, CAM 200 mg/kg, RFP 20 mg/kg, ETB 100 mg/kg, CFZ 20 mg/kg) was 3.98, the “drop in mean log 10 CFU from Control 2” value [6] was 1.0 and the “Mean Log10 (CFU in lungs)” value ([6]; CFZ 20 mg/kg, HT-21 5 mg/kg or Q203 5 mg/kg) was 4.85. The “inhibition of CYP3A” value [5] was “inhibits”.
In the case of `CC(C)/N=c1\cc2n(-c3ccc(Cl)cc3)c3ccccc3nc-2cc1Nc1ccc(Cl)cc1` [CFZ, Clofazimine], the MIC [7] is given as 1 to 4 µg/mL, the MIC [8] is given as less than 1 µg/mL and the “proportion of patients converted to negative cultures” value [9] is given as “significantly greater proportion”.
